# “Also recorded” adds a separate entry of the source.
# Tests used:
# healthy subjects [1] = assay: Heart rate by triplicate ECG after Compound 03-5 with or without nadolol; format: in vivo, human; conditions: 6 mg Compound 03-5 with pre-administration of 1 mg nadolol
# Experimental: FIGS. 11A-11B show the effects of Compound 03-5 monotherapy (6 mg) on heart rate (FIG. 11A) and administered 2 hours after nadolol (1-40 mg) (FIG. 11B). Heart rate was measured by triplicate ECG recordings. Data are presented as means changes from time-matched measures recorded on the day before the first dose of study drug (Day −1).
# Healthy volunteers were be enrolled into 2 cohorts in a study to undertake within-subject dose titration of Compound 03-5 and/or nadolol in order to explore doses/dose combinations that mitigate peripheral effects of Compound 03-5, e.g. on heart rate, while preserving possible central effects of Compound 03-5 on cerebral perfusion and pupillary light reflex.
# Cohort D1 enrolled 8 healthy subjects and undertook an evaluation of the effects of treatment on ECG following repeat dosing of Compound 03-5 in the presence of escalating doses of nadolol according to following schematic.
# Eight healthy subjects aged 18-50 years were enrolled into Cohort D1 and received escalating doses of Compound 03-5 (3-12 mg) administered once daily 2 hours follow pre-administration of nadolol (1-40 mg). On all dosing days, study drug(s) were administered orally after an overnight fast of at least 8 hours. […]
# healthy subjects [2] = assay: Peripheral effects of Compound 03-5 (glucose, potassium, tachycardia, tremor, palpitations) with nadolol; format: in vivo, human
# Experimental: Data are presented as individual observations for all available subjects.
# Eight healthy subjects aged 18-50 years were enrolled into Cohort D1 and received escalating doses of Compound 03-5 (3-12 mg) administered once daily 2 hours follow pre-administration of nadolol (1-40 mg). On all dosing days, study drug(s) were administered orally after an overnight fast of at least 8 hours.
# Routine measures of ECG, vital signs, safety labs, physical exams and plasma sample collections for analysis of drug pharmacokinetics (PK) were undertaken according to the Schedule of Events (Table 1).
# (§1) In Cohort D2, 8 healthy volunteers aged 55-75 years were admitted on Day −1 for a 5-day confinement period at the research facility. During this confinement, subjects received escalating doses of open label Compound 03-5 (1-10 mg) once-daily from Day 1 through Day 3 2 hours after pre-administration of open-label nadolol (3 mg) one each for the 3 dosing days according to the following schematic. Subjects remained in-residency until all study procedures are completed on Day 4.
# [3] = test system: healthy volunteers aged 55-75 years; assay: CANTAB cognition battery, Cohort D2; format: in vivo, human; conditions: Compound 03-5 1, 3, 10 mg on Days 1-3, 2 hours after nadolol 3 mg
# Experimental: CANTAB data from healthy adults 55-75 years of age (N=4) who received once-daily 3 mg nadolol and Compound 03-5 (1, 3, and 10 mg) on Day1, Day 2 and Day 3. […] Data are presented as mean changes from the within-day pre-dose assessment.
# as §1
# ? Compound 03-5 dose administration. Compound 03-5 was administered as escalating doses on Day 1 (1 mg), Day 2 (3 mg) and Day 3 (10 mg). CANTAB was conducted twice in all subjects on the day prior to start of dosing (Day −1) to familiarize subjects with the platform, and prior to dosing and approximately 3 hours after Compound 03-5 administration on Days 1, 2, and 3.
# Ts65Dn mice = conditions: increasing brain NE levels; cited from earlier work
# patients = assay: Cerebral blood flow relative to baseline after a single dose (Example 1); format: in vivo, human
# healthy subjects [4] = assay: ASL MRI cerebral perfusion before and after a single dose (Example 3); format: in vivo, human
# Experimental: In a clinical study, healthy subjects were administered doses of clenbuterol ranging from 20 to 160 μg and ASL MRI was conducted prior to and after dosing with an objective to ascertain whether this neuroimaging method enables the detection of a clinically relevant CNS signal.
# In a region of interest (ROI) analysis focusing on the hippocampus, which is well understood to be affected in neurodegenerative disorders, a single dose of 80 μg of clenbuterol causes a robust increase in perfusion (see FIG. 7). […] Taken together with other cohorts in which ASL MRI was conducted, a clear dose response relationship is seen between dose of clenbuterol and cerebral perfusion (FIG. 8). […] Our hypothesis is that by improving cerebral perfusion, particularly in areas of the brain that are relevant for symptoms that are commonly found in neurodegenerative diseases such as PD and AD, the administration of a β-AR agonist (such as a β-agent) will have a positive effect on clinically relevant symptoms such as memory and cognition.
# healthy subjects [5] = assay: Adaptive tracking test (visuomotor coordination and vigilance); format: in vivo, human; conditions: single dose 160 μg clenbuterol
# Text: Adaptive tracking measures visuomotor coordination and vigilance. In this test, the subject uses a joystick to move a small dot so that it stays within a continuously moving circle on a computer screen (Boland 1984). During the test, the speed of the circle is adjusted in response to the subject's ability to keep the dot in the circle, ensuring that the test is adapted to the individual subject. […] The improvement shown by subjects is in the same range as that seen with subjects treated with the acetylcholinesterase inhibitor donepezil, which is in clinical use for the treatment of mild to moderate AD (Groeneveld 2016).
# subjects = assay: Visual verbal learning test (VVLT); format: in vivo, human; conditions: for effect on VVLT performance: crossover study, 3 agents plus placebo
# Experimental: Subjects are presented 30 words on a screen, one at a time, for 1 second with a 1-second interval between words over a total of 1 minute. This is repeated in 3 trials. After each trial, subjects are asked to recall as many words as they can. After the third trial, there is a delay of 2.5 hours and subjects are then tested once for delayed recall. […] Since this was a crossover study, everyone who completed Part A was dosed with the 3 agents plus placebo.
# [6] = doses of 80 and 160 μg clenbuterol
compound,measurement,setting,value
"CC(C)(C)NC[C@H](O)c1cccc(C#N)n1 [Compound 03-5, (S)-6-(2-(tert-butylamino)-1-hydroxyethyl)picolinonitrile]",mean maximum increase in heart rate,healthy subjects [1],7 beats per minute
same,hypokalemia (blood potassium levels),"healthy subjects [2]; Compound 03-5 monotherapy 0.3 mg-6 mg, Cohorts A1-A5",Dose-dependent increases in hypokalemia
same,performance in the CANTAB cognition battery,[3],improvements in cognition; also recorded: improvements in performance
"N[C@H](C(=O)O)[C@H](O)c1ccc(O)c(O)c1 [L-DOPS, L-threo-3,4-dihydroxyphenylserine]",contextual learning,Ts65Dn mice,restored contextual learning
CC(C)(C)NCC(O)c1cc(Cl)c(N)c(Cl)c1 (stereo not shown) [clenbuterol],cerebral blood flow (CBF) relative to baseline,patients; single dose clenbuterol 160 μg,robust global increase; also recorded: positive increase
same,cerebral blood flow (CBF) relative to baseline,patients; single dose clenbuterol 160 μg and nadolol 5 mg,robust global increase
same,cerebral blood flow (CBF) relative to baseline,"patients; single dose clenbuterol ranging from 30 to 160 μg, tracked over 3 days",robust global increase
same,cerebral perfusion increase as measured by CBF,healthy subjects [4]; clenbuterol dose of 40 μg,minimal increase
same,cerebral perfusion increase as measured by CBF,healthy subjects [4]; clenbuterol doses below 30 μg,do not produce significant cerebral perfusion increases
same,improvements in perfusion in brain areas relevant to neuropathology of neurodegenerative disorders,healthy subjects [4]; [6],~25%
same,increases in cerebral perfusion in hippocampus and thalamus,healthy subjects [4]; [6],20% to 25
same,"increase in hippocampal perfusion, average","healthy subjects [4]; single dose 80 μg clenbuterol, 6 healthy subjects aged 44-52, hippocampus ROI",25%
same,"cerebral perfusion, change from baseline","healthy subjects [4]; single dose 160 μg clenbuterol, global, in particular hippocampus, thalamus, cortex",global increase in cerebral perfusion; also recorded: robust global increase
same,performance in adaptive tracking (percent time dot kept within moving circle),healthy subjects [5],improved adaptive tracking; also recorded: improves
same,cognition as measured by adaptive tracking and word recall,"healthy subjects [5]; healthy subjects, preliminary data",improves cognition
same,effect on VVLT performance,subjects,positive effects
same,effect on VVLT performance,subjects; listed as Clenbuterol,improved performance
same,VVLT improvement in correctly recalled words,"subjects; immediate recall (Trial 1) and delayed recall, crossover study vs placebo",1.5 to 2 correctly recalled words
CC(C)(C)NCC(O)COc1cccc2c1CC(O)C(O)C2 (stereo not shown) [nadolol],"peripheral effects of Compound 03-5 on heart rate, glucose, potassium, tachycardia, tremor and palpitations","healthy subjects [2]; Cohort D1, pre-administered nadolol 1 mg up to 40 mg, Compound 03-5 3-12 mg",blocked the peripheral effects
same,effects of Compound 03-5 to increase heart rate and other peripheral effects including hyper glycemia and hypokalemia,"healthy subjects [2]; Cohort D1, pre-administration of 1 mg nadolol, Compound 03-5 orally up to 6 mg",substantially attenuated
same,"peripheral effects of Compound 03-5 on heart rate, etc.","healthy subjects [2]; Cohort D2, pre-administered nadolol 3 mg, Compound 03-5 1-10 mg",similarly blocked the peripheral effects
same,"effects of Compound 03-5 on blood glucose and potassium, tachycardia, tremor and palpitations",healthy subjects [2]; pre-administration of 1 mg nadolol,Concomitant attenuation
same,hypokalemia caused by Compound 03-5 (blood potassium levels),"healthy subjects [2]; subjects dosed with nadolol 1-40 mg, Cohorts D1 and D2",attenuation of hypokalemia
CC(C)NCC(O)COc1cccc2[nH]ccc12 (stereo not shown) [pindolol],effect on VVLT performance,subjects,detrimental effect
CC(C)(C)NCC(O)c1ccc(O)c(CO)c1 (stereo not shown) [salbutamol],effect on VVLT performance,subjects,positive effects

# From patent US12616667B2, “Compositions and methods for improving neurological diseases and disorders” (CURASEN THERAPEUTICS, INC., priority 2021, dated 2026)
